# In patent US5292884A, “Cyclic hydroxamic acids” (Biomide Investment Limited Partnership, priority 1992, dated 1994):
# Target: T1, 12-lipoxygenase (Sus scrofa, UniProt P16469)
# T1 construct: porcine Leukocyte cytosol in buffer; from tissue; host or cells: porcine leukocyte cytosol
# T1 sequence (P16469 1-663): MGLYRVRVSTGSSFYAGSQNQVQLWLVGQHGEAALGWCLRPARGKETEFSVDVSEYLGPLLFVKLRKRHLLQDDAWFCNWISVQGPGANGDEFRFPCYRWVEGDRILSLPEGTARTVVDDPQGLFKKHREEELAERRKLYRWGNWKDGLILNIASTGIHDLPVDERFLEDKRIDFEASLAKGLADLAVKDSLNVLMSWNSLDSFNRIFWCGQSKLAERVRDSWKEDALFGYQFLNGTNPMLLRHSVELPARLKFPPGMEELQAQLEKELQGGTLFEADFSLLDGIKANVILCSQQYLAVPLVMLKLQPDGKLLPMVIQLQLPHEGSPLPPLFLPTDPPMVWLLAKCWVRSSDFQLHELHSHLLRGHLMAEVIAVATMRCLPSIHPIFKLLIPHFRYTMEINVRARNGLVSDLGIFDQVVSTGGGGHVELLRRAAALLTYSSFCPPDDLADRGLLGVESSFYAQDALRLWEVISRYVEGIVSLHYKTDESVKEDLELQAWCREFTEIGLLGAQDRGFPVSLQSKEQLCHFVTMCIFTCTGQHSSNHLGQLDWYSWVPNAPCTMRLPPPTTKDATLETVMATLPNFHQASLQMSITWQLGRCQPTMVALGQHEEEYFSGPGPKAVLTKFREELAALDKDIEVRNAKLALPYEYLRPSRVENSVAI
# Test: 12-lipoxygenase inhibition in porcine leukocyte cytosol ([1-14C] arachidonic acid conversion to 12-HETE, TLC)
# Format: biochemical
# Conditions: porcine leukocyte cytosol 0.075 mg/mL, pH 8.0, 5 min preincubation, 5 μM arachidonic acid, 15 min at 37° C.
# Experimental: The standard assay procedure is as follows:
# Compounds of the present invention were added in 3 μL of DMSO at an appropriate concentration to porcine Leukocyte cytosol in buffer (final protein concentration of 0.075 mg/mL in 0.1M HEPES, 2 mM caCl2, 1 mM MgCl2, pH=8.0) and preincubated for 5 min at 37° C. [1-^14 C] arachidonic acid was added (final concentration of 5 μM) and the reactions were incubated for 15 min at 37° C. and terminated by the addition of HCl. Total reaction volume was 100 μL. Assays also included reduced glutathione in the assay at 25 μM or following the assay at 1 mM and/or cold carrier 12-HETE and arachidonic acid added at the end of the incubation at concentrations of 5 and 100 μM, respectively. Sample was extracted with water-saturated ethyl acetate and the extracts were spotted onto TLC plates. The plates were developed with dichloromethane/ethyl acetate/acetic acid in a ratio of 70:30:1. Under these conditions, the Rf's of 12-HETE and arachidonic acid are 0.30 and 0.45 , respectively. The percentage conversion to 12-HETE was calculated from the percentage of the total ^14 C on the TLC plate that coelutes with a standard of 12-HETE.
row,SMILES,IC50
1,"O=C1C[C@@H](c2ccccc2)C[C@@H](CCCc2ccccc2)N1O (relative stereo) [1(j), cis-1-hydroxy-4-phenyl-6-(3-phenylpropyl)-piperidin-2-one]",280 nM
2,"O=C1CCC(CCCc2ccccc2)C(CCCc2ccccc2)N1O (centres unmarked) [1(fff), 1-Hydroxy-5,6-bis(3-phenyl-propyl)-piperidin-2-one]",250 nM
3,"CCCCCCCCCCCC[C@@H]1C[C@H](c2ccccc2)CC(=O)N1O (relative stereo) [1(d), cis-1-hydroxy-6-dodecyl-4-phenyl-piperidine-2-one]",300 nM
4,"O=C1C(Cc2cccc3ccccc23)C(c2ccccc2)CCN1O (centres unmarked) [1(ee), 1-Hydroxy-3-(1-naphthyl-methyl)-4-phenyl-piperidin-2-one]",1000 nM
5,"CCCCCCCCCCCCCCCCCC[C@@H]1C[C@H](c2ccccc2)CC(=O)N1O (relative stereo) [1(h), cis-1-hydroxy-6-octadecyl-4-phenylpiperidin-2-one]",> 10000 nM
6,"O=C1C[C@@H](c2ccccc2)C[C@H](CCCc2ccccc2)N1O (relative stereo) [1(k), trans-1-hydroxy-4-phenyl-6-(3-phenylpropyl)-piperidin-2-one]",390 nM
7,"O=C1C(CCCc2ccccc2)CC(c2ccccc2)CN1O (centres unmarked) [1(aaa), 1-Hydroxy-5-phenyl-3-(3-phenylpropyl)-piperidin-2-one]",750 nM

# The next lines start with the values.
row,IC50,SMILES
1,800 nM,"CCCCCCCCCCCC[C@H]1C[C@H](Cc2ccccc2)CC(=O)N1O (relative stereo) [1(mm), trans-4-Benzyl-6-dodecyl-1-hydroxy-piperidin-2-one]"
2,600 nM,"CCCCCCCCC[C@@H]1CC(=O)N(O)C[C@H]1c1ccccc1 (relative stereo) [1(tt), trans-1-Hydroxy-4-nonyl-5-phenyl-piperidin-2-one]"
3,100 nM,"CCCCCCCC[C@H]1C[C@H](c2ccc3ccccc3c2)CC(=O)N1O (relative stereo) [1(q), trans-1-hydroxy-4-(2-naphthyl)-6-octylpiperidin-2-one]"
4,700 nM,"CCCCCCCCCCCC[C@@H]1C(=O)N(O)CC[C@H]1c1ccccc1 (relative stereo) [1(s), trans-1-hydroxy-4-phenyl-3-dodecylpiperidin-2-one]"
